The record followed here is US20260015358A1, “BICYCLIC DERIVATIVES, COMPOSITIONS AND USES THEREOF” (Danatlas Pharmaceuticals Co., Ltd., priority 2023, published 2026).

The target of assay [1] is T1, WRN [UniPro: Q14191 (WRN_HUMAN), N500-C946] (Homo sapiens (Human), UniProt Q14191). In words: WRN ATPase assay (ADP-Glo). Format: biochemical. The note with it: WRN enzymatic activity assay. On the technique in general: ADP-Glo turns the ADP formed in a reaction into a luminescent signal.
The target of assay [2] is T1, WRN [UniPro: Q14191 (WRN_HUMAN), N500-C946]. In words: WRN unwinding assay (FORKF DNA, fluorescence). Format: biochemical. The conditions noted are these: Table 14.

A word on the IC50: it is the midpoint of a concentration-inhibition curve. Higher therefore signals a need for much substance.

T1 sequence (Q14191 500-946): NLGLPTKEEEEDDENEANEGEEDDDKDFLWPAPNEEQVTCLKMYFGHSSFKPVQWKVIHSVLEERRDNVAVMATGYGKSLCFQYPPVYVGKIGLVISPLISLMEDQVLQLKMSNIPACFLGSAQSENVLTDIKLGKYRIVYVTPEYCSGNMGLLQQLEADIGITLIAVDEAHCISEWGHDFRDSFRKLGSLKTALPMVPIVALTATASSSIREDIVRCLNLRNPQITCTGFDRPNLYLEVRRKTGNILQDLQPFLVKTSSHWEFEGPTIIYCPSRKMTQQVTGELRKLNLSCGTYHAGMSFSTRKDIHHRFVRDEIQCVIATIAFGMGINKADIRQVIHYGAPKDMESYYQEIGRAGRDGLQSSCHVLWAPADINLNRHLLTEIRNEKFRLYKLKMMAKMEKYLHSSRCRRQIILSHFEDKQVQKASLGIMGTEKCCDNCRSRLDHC

On to `CCc1c(N2CCN(C(=O)CNC(=O)c3cnn(C)c3)CC2)c(=O)n2nc(C3=CCOCC3)nc2n1CC(=O)Nc1ccc(C(F)(F)F)cc1Cl` [Example 103, N-(2-(4-(4-(2-((2-Chloro-4-(trifluoromethyl)phenyl)amino)-2-oxoethyl)-2-(3,6-dihydro-2H-pyran-4-yl)-5-ethyl-7-oxo-4,7-dihydro-[1,2,4]triazolo[1,5-a]pyrimidin-6-yl)piperazin-1-yl)-2-oxoethyl)-1-methyl-1H-pyrazole-4-carboxamide], for which the IC50 in assay [1] and in assay [2] was below 100 nM in each case.

In the case of `CCc1c(N2CCN(C(=O)CNC(=O)c3cccc(Cl)c3Cl)CC2)c(=O)n2nc(C3=CCOCC3)nc2n1CC(=O)Nc1ccc(C(F)(F)F)cc1Cl` [Example 104, 2,3-Dichloro-N-(2-(4-(4-(2-((2-chloro-4-(trifluoromethyl)phenyl)amino)-2-oxoethyl)-2-(3,6-dihydro-2H-pyran-4-yl)-5-ethyl-7-oxo-4,7-dihydro-[1,2,4]triazolo[1,5-a]pyrimidin-6-yl)piperazin-1-yl)-2-oxoethyl)benzamide], the IC50 in assay [1] is 100 to 1000 nM; in assay [2], below 100 nM.

Turning to `CCc1c(N2CCN(C(=O)CNC(=O)c3csc(C)n3)CC2)c(=O)n2nc(C3=CCOCC3)nc2n1CC(=O)Nc1ccc(C(F)(F)F)cc1Cl` [Example 105, N-(2-(4-(4-(2-((2-Chloro-4-(trifluoromethyl)phenyl)amino)-2-oxoethyl)-2-(3,6-dihydro-2H-pyran-4-yl)-5-ethyl-7-oxo-4,7-dihydro-[1,2,4]triazolo[1,5-a]pyrimidin-6-yl)piperazin-1-yl)-2-oxoethyl)-2-methylthiazole-4-carboxamide], the IC50 is 100 to 1000 nM in assay [1] and below 100 nM in assay [2].

Consider `CCc1c(N2CCN(C(=O)CNC(=O)c3ncc[nH]3)CC2)c(=O)n2nc(C3=CCOCC3)nc2n1CC(=O)Nc1ccc(C(F)(F)F)cc1Cl` [Example 106, N-(2-(4-(4-(2-((2-Chloro-4-(trifluoromethyl)phenyl)amino)-2-oxoethyl)-2-(3,6-dihydro-2H-pyran-4-yl)-5-ethyl-7-oxo-4,7-dihydro-[1,2,4]triazolo[1,5-a]pyrimidin-6-yl)piperazin-1-yl)-2-oxoethyl)-1H-imidazole-2-carboxamide], for which the IC50 in assay [1] is 100 to 1000 nM; in assay [2], below 100 nM.

As to `CCc1c(N2CCN(C(=O)CNC(=O)c3cc(C)on3)CC2)c(=O)n2nc(C3=CCOCC3)nc2n1CC(=O)Nc1ccc(C(F)(F)F)cc1Cl` [Example 107, N-(2-(4-(4-(2-((2-Chloro-4-(trifluoromethyl)phenyl)amino)-2-oxoethyl)-2-(3,6-dihydro-2H-pyran-4-yl)-5-ethyl-7-oxo-4,7-dihydro-[1,2,4]triazolo[1,5-a]pyrimidin-6-yl)piperazin-1-yl)-2-oxoethyl)-5-methylisoxazole-3-carboxamide], the IC50 in assay [1] and in assay [2] was below 100 nM throughout.

`CCc1c(N2CCN(C(=O)CNC(=O)c3c[nH][nH]c3=O)CC2)c(=O)n2nc(C3=CCOCC3)nc2n1CC(=O)Nc1ccc(C(F)(F)F)cc1Cl` [Example 108, N-(2-(4-(4-(2-((2-Chloro-4-(trifluoromethyl)phenyl)amino)-2-oxoethyl)-2-(3,6-dihydro-2H-pyran-4-yl)-5-ethyl-7-oxo-4,7-dihydro-[1,2,4]triazolo[1,5-a]pyrimidin-6-yl)piperazin-1-yl)-2-oxoethyl)-3-oxo-2,3-dihydro-1H-pyrazole-4-carboxamide]: the IC50 in assay [1] and in assay [2] was below 100 nM in each case.

On to `CCc1c(N2CCN(C(=O)CNC(=O)c3cnn4cccc4c3O)CC2)c(=O)n2nc(C3=CCOCC3)nc2n1CC(=O)Nc1ccc(C(F)(F)F)cc1Cl` [Example 109, N-(2-(4-(4-(2-((2-Chloro-4-(trifluoromethyl)phenyl)amino)-2-oxoethyl)-2-(3,6-dihydro-2H-pyran-4-yl)-5-ethyl-7-oxo-4,7-dihydro-[1,2,4]triazolo[1,5-a]pyrimidin-6-yl)piperazin-1-yl)-2-oxoethyl)-4-hydroxypyrrolo[1,2-b]pyridazine-3-carboxamide], for which the concentration for half-maximal inhibition (IC50) in assay [1] and in assay [2] was below 100 nM throughout.

Take `CCc1c(N2CCN(C(=O)CNC(=O)c3cccnc3)CC2)c(=O)n2nc(C3=CCOCC3)nc2n1CC(=O)Nc1ccc(C(F)(F)F)cc1Cl` [Example 110, N-(2-(4-(4-(2-((2-Chloro-4-(trifluoromethyl)phenyl)amino)-2-oxoethyl)-2-(3,6-dihydro-2H-pyran-4-yl)-5-ethyl-7-oxo-4,7-dihydro-[1,2,4]triazolo[1,5-a]pyrimidin-6-yl)piperazin-1-yl)-2-oxoethyl)nicotinamide]: the half-inhibitory concentration (IC50) in assay [1] and in assay [2] was below 100 nM each time.

Regarding `CCc1c(N2CCN(C(=O)CNC(=O)c3ccccc3Cl)CC2)c(=O)n2nc(C3=CCOCC3)nc2n1CC(=O)Nc1ccc(C(F)(F)F)cc1Cl` [Example 111, 2-Chloro-N-(2-(4-(4-(2-((2-chloro-4-(trifluoromethyl)phenyl)amino)-2-oxoethyl)-2-(3,6-dihydro-2H-pyran-4-yl)-5-ethyl-7-oxo-4,7-dihydro-[1,2,4]triazolo[1,5-a]pyrimidin-6-yl)piperazin-1-yl)-2-oxoethyl)benzamide], the half-inhibitory concentration (IC50) in assay [1] and in assay [2] was below 100 nM throughout.

With `CCc1c(N2CCN(C(=O)CNC(=O)c3ccccc3OC)CC2)c(=O)n2nc(C3=CCOCC3)nc2n1CC(=O)Nc1ccc(C(F)(F)F)cc1Cl` [Example 112, N-(2-(4-(4-(2-((2-Chloro-4-(trifluoromethyl)phenyl)amino)-2-oxoethyl)-2-(3,6-dihydro-2H-pyran-4-yl)-5-ethyl-7-oxo-4,7-dihydro-[1,2,4]triazolo[1,5-a]pyrimidin-6-yl)piperazin-1-yl)-2-oxoethyl)-2-methoxybenzamide], the IC50 in assay [1] and in assay [2] was below 100 nM each time.

For `CCc1c(N2CCN(C(=O)CNC(=O)c3ccccc3Br)CC2)c(=O)n2nc(C3=CCOCC3)nc2n1CC(=O)Nc1ccc(C(F)(F)F)cc1Cl` [Example 113, 2-Bromo-N-(2-(4-(4-(2-((2-chloro-4-(trifluoromethyl)phenyl)amino)-2-oxoethyl)-2-(3,6-dihydro-2H-pyran-4-yl)-5-ethyl-7-oxo-4,7-dihydro-[1,2,4]triazolo[1,5-a]pyrimidin-6-yl)piperazin-1-yl)-2-oxoethyl)benzamide], the IC50 in assay [1] and in assay [2] was below 100 nM in each case.

In the case of `CCc1c(N2CCN(C(=O)CNC(=O)c3ccnn3C)CC2)c(=O)n2nc(C3=CCOCC3)nc2n1CC(=O)Nc1ccc(C(F)(F)F)cc1Cl` [Example 114, N-(2-(4-(4-(2-((2-Chloro-4-(trifluoromethyl)phenyl)amino)-2-oxoethyl)-2-(3,6-dihydro-2H-pyran-4-yl)-5-ethyl-7-oxo-4,7-dihydro-[1,2,4]triazolo[1,5-a]pyrimidin-6-yl)piperazin-1-yl)-2-oxoethyl)-1-methyl-1H-pyrazole-5-carboxamide], the IC50 in assay [1] and in assay [2] was below 100 nM in each case.

Consider `CCc1c(N2CCN(C(=O)CNC(=O)c3cc(F)cc(F)c3)CC2)c(=O)n2nc(C3=CCOCC3)nc2n1CC(=O)Nc1ccc(C(F)(F)F)cc1Cl` [Example 115, N-(2-(4-(4-(2-((2-Chloro-4-(trifluoromethyl)phenyl)amino)-2-oxoethyl)-2-(3,6-dihydro-2H-pyran-4-yl)-5-ethyl-7-oxo-4,7-dihydro-[1,2,4]triazolo[1,5-a]pyrimidin-6-yl)piperazin-1-yl)-2-oxoethyl)-3,5-difluorobenzamide], for which the IC50 in assay [1] and in assay [2] was below 100 nM in each case.

Consider `CCc1c(N2CCN(C(=O)CNC(=O)c3cccc(F)c3F)CC2)c(=O)n2nc(C3=CCOCC3)nc2n1CC(=O)Nc1ccc(C(F)(F)F)cc1Cl` [Example 116, N-(2-(4-(4-(2-((2-Chloro-4-(trifluoromethyl)phenyl)amino)-2-oxoethyl)-2-(3,6-dihydro-2H-pyran-4-yl)-5-ethyl-7-oxo-4,7-dihydro-[1,2,4]triazolo[1,5-a]pyrimidin-6-yl)piperazin-1-yl)-2-oxoethyl)-2,3-difluorobenzamide], for which the IC50 in assay [1] and in assay [2] was below 100 nM each time.

`CCc1c(N2CCN(C(=O)CNC(=O)c3ccc(F)cc3F)CC2)c(=O)n2nc(C3=CCOCC3)nc2n1CC(=O)Nc1ccc(C(F)(F)F)cc1Cl` [Example 117, N-(2-(4-(4-(2-((2-Chloro-4-(trifluoromethyl)phenyl)amino)-2-oxoethyl)-2-(3,6-dihydro-2H-pyran-4-yl)-5-ethyl-7-oxo-4,7-dihydro-[1,2,4]triazolo[1,5-a]pyrimidin-6-yl)piperazin-1-yl)-2-oxoethyl)-2,4-difluorobenzamide]: the IC50 in assay [1] and in assay [2] was below 100 nM each time.

As to `CCc1c(N2CCN(C(=O)CNC(=O)c3cc(F)ccc3F)CC2)c(=O)n2nc(C3=CCOCC3)nc2n1CC(=O)Nc1ccc(C(F)(F)F)cc1Cl` [Example 118, N-(2-(4-(4-(2-((2-Chloro-4-(trifluoromethyl)phenyl)amino)-2-oxoethyl)-2-(3,6-dihydro-2H-pyran-4-yl)-5-ethyl-7-oxo-4,7-dihydro-[1,2,4]triazolo[1,5-a]pyrimidin-6-yl)piperazin-1-yl)-2-oxoethyl)-2,5-difluorobenzamide], the IC50 in assay [1] and in assay [2] was below 100 nM each time.

In the case of `CCc1c(N2CCN(C(=O)CNC(=O)c3ccc(OC)cc3)CC2)c(=O)n2nc(C3=CCOCC3)nc2n1CC(=O)Nc1ccc(C(F)(F)F)cc1Cl` [Example 119, N-(2-(4-(4-(2-((2-Chloro-4-(trifluoromethyl)phenyl)amino)-2-oxoethyl)-2-(3,6-dihydro-2H-pyran-4-yl)-5-ethyl-7-oxo-4,7-dihydro-[1,2,4]triazolo[1,5-a]pyrimidin-6-yl)piperazin-1-yl)-2-oxoethyl)-4-methoxybenzamide], the IC50 in assay [1] and in assay [2] was below 100 nM in each case.
